# Experimental data from paper PMC10325066, “The FMRF-NH2 gated sodium channel of Biomphalaria glabrata: Localization and expression following infection by Schistosoma mansoni” (PLOS Neglected Tropical Diseases, 2023).
# “Also recorded” adds a separate entry of the source.
# Assays:
# Cornu aspersum FaNaC = tested on: Cornu aspersum FaNaC; parameters: method as in PMID 7501021; settings: cited from earlier work
# Planorbella FaNaC = tested on: Planorbella FaNaC; parameters: method as in PMID 10878095; settings: cited from earlier work
# [1] = tested on: Biomphalaria glabrata FMRF-NH2 gated sodium channel (Bgl-FaNaC); experiment: Two-electrode voltage clamp of Bgl-FaNaC heterologously expressed in Xenopus oocytes; type: cell-based; settings: peptide 1 mM (given for FLRF-NH2, pQFYRI-NH2, FIRF-NH2; not given for GDPFLRF-NH2); oocyte voltage clamp -60 mV
# Protocol: The cDNA encoding the Bgl-FaNaC sequence was codon-optimized for Xenopus laevis and synthesized by Integrated DNA Technologies (IDT, Coralville IA). The Flag-tag protein affinity sequence (DYKDDDDK; Sigma-Aldrich) was added to the N-terminal to enable confirmation of expression. The cDNA was subcloned into the Xenopus expression vector pGEM HE as described previously. The Bgl-FaNaC full-length RNA was transcribed in vitro, capped and polyadenylated using the T7 mScript Standard mRNA Production System (CellScript, Madison WI).
# Oocytes were obtained from dissected ovaries of adult Xenopus laevis specimens (Xenopus Express, Brooksville FL). They were dispersed with type II collagenase and manually defolliculated. RNA injections were performed in pre-selected oocytes from stages V and VI. Oocytes were injected with 38.6 nL of Bgl-FaNaC encoding RNA at a concentration of 20 ng/uL using a Nanoliter 2000 microinjector (World Precision Instruments, Sarasota FL).
# Injected oocytes were placed at the bottom of a plastic recording chamber (3 ml volume) lined with a nylon mesh and continuously perfused with ND96 (96 mM NaCl, 2 mM KCl, 1.8 mM CaCl2, 1 mM MgCl2, 5 mM HEPES, pH 7.6; see detailed methods in [38]). An OC725B oocyte clamp (Warner Instruments LLC., Hamden CT) was used to clamp the membrane potential at -60 mV with independent microelectrodes for recording (0.1 M potassium chloride) and passing current (3 M potassium chloride). Data were acquired on a Digidata 1200 interface with Clampex (V.6) and analyzed with AxoScope 10.7 (Axon Instruments, Union City CA). All experiments were carried out at room temperature (20–25°C).
# Synthetic FMRF-NH2, FLRF-NH2, FIRF-NH2, pQFYRI-NH2, and GDPFLRF-NH2 peptides (>90% purity) were purchased from GL Biochem (Shanghai, China). All peptides were dissolved in ND96 in a stock of 1 mM. Peptide stocks were frozen at -20°C and serial dilutions were freshly prepared before each experiment. Peptides were applied manually using a pipettor (1 mL, upstream from the oocyte).
Compound,Current response to related peptide application [1],further results
N=C(N)NC(=O)c1nc(Cl)c(N)nc1N [amiloride],,Effect of amiloride on FaNaC (Cornu aspersum FaNaC; FaNaC of Cornu aspersa): blocks; Effect of amiloride on FaNaC responses to FMRF-NH2 (Planorbella FaNaC): potentiates responses to FMRF-NH2
FIRF-NH2 [Synthetic peptide encoded on the tetrapeptide precursor Bgl-FaRP1],No currents,
FLRF-NH2 [Synthetic related peptide encoded on the Biomphalaria FMRF-NH2 precursor],No currents; also recorded: No response was detected,"EC50 (Cornu aspersum FaNaC; C. aspersum FaNaC, read-out: EC50 for FaNaC activation): 11 µM; Response of FaNaC to peptide (Planorbella FaNaC): negligible"
"GDPFLRF-NH2 [Synthetic heptapeptide, product of the heptapeptide precursor Bgl-FaRP2]",No currents; also recorded: No response was elicited,
pQFYRI-NH2 [Synthetic peptide encoded on the tetrapeptide precursor Bgl-FaRP1],No currents,
